Values after ≈ are worked out from the molar mass of the structure shown. Like-named read-outs stand apart in the source and are kept apart here.
Assays:
Assay type in all cases: cell-based
S. aureus Newman = assay: MIC, microbroth dilution susceptibility assay; conditions: Staphylococcus aureus, NEWMAN, read-out: MIC S. aureus Newman
Experimental: (§1) Cystobactamid derivatives synthesized were tested against relevant Gram negative and positive bacteria of clinical interest. Experimental procedures used for the biological characterization of the compounds are the same as previously described in WO 2016/082934.
(§2) Bacterial strains used in susceptibility assays (minimum inhibitory concentration, MIC) were either part of our internal strain collection or purchased from the German Collection of Microorganisms and Cell Cultures (Deutsche Sammlung von Mikroorganismen und Zellkulturen, DSMZ) and the American Type Culture Collection (ATCC). The susceptible E. coli strain (WT) and fluoroquinolone-resistant mutants E. coli WT-3 and WT-III were kindly provided by Prof Dr. P. Heisig, Pharmaceutical Biology and Microbiology, University of Hamburg, Germany. The efflux-deficient strain P. aeruginosa ΔmexAB was kindly provided by Prof Dr. S. Häußler, Institute for Molecular Bacteriology, TWINCORE, Hannover, Germany. All compounds were prepared as DMSO stocks and MIC values were determined in standard microbroth dilution assays in 96-well MTPs as described in Baumann et al., Angew Chem Int Ed Engl. 2014; 53(52):14605-9. In brief, overnight cultures of bacteria were diluted in either tryptic soy broth (TSB: 1.7% peptone casein, 0.3% peptone soymeal, 0.25% glucose, 0.5% NaCl, 0.25% K2HPO4; pH 7.3; S. pneumoniae and E. faecalis) or cation-adjusted Müller-Hinton Broth (BBL™, BD; all other bacteria) and adjusted to 10^4-10^6 cfu/mL. Bacteria were grown in the presence of the derivatives in serial dilution for approx. 16 h at 30-37° C. MIC values were determined and were defined as the antibiotic concentration at which no visual growth of bacteria was observed.

E. coli WT DSM-1116 = assay: MIC, microbroth dilution susceptibility assay; conditions: Escherichia coli, read-out: MIC E. coli WT DSM-1116
Experimental: as §1, §2

P. aeruginosa WT PA14 = assay: MIC, microbroth dilution susceptibility assay; conditions: Pseudomonas aeruginosa
Experimental: as §1, §2

E. coli ΔtolC = assay: microbe, parasite or virus in culture; conditions: Escherichia coli, 16 h
Experimental: as §1, §2

P. aeruginosa ΔmexAB = assay: microbe, parasite or virus in culture; conditions: Pseudomonas aeruginosa, 16 h
Experimental: as §1, §2

[1] = DSM1116, small panel, Tables 1a/1b, no visual growth after approx. 16 h
[2] = PA14, small panel, Tables 1a/1b, read-out: MIC P. aeruginosa WT PA14
[3] = read-out: MIC E. coli ΔtolC, small panel, Tables 1a/1b, no visual growth after approx. 16 h
[4] = read-out: MIC P. aeruginosa ΔmexAB, efflux-deficient strain, small panel, Tables 1a/1b

Compound | MIC (S. aureus Newman; small panel, Tables 1a/1b) | MIC (E. coli WT DSM-1116; [1]) | MIC (P. aeruginosa WT PA14; [2]) | MIC (E. coli ΔtolC; [3]) | MIC (P. aeruginosa ΔmexAB; [4]) | MIC (S. aureus Newman) | MIC (E. coli WT DSM-1116; DSM1116, 16 h) | MIC (P. aeruginosa WT PA14; PA14, read-out: MIC P. aeruginosa WT PA14) | MIC (E. coli ΔtolC; read-out: MIC E. coli ΔtolC) | MIC (P. aeruginosa ΔmexAB; read-out: MIC P. aeruginosa ΔmexAB)
CC(C)Oc1c(NC(=O)c2ccc(NC(=O)[C@H](CC(N)=O)NC(=O)c3ccc(NC(=O)c4ccc(C#N)cc4)cc3)cc2)ccc(C(=O)Nc2ccc(S(=O)(=O)O)cc2)c1O [Compound 92, (S)-4-(4-(4-(4-amino-2-(4-(4-cyanobenzamido)benzamido)-4-oxobutanamido)benzamido)-2-hydroxy-3-isopropoxybenzamido)benzenesulfonic acid] | > 64 µg/mL | > 64 µg/mL | > 64 µg/mL | 0.25 µg/mL (≈ 0.295 µM) | > 64 µg/mL | – | – | – | – | –
CC(C)Oc1c(NC(=O)c2ccc(NC(=O)[C@H](CC(N)=O)NC(=O)c3ccc(NC(=O)C(C)Oc4ccccc4)cc3)cc2)ccc(C(=O)Nc2ccc(C(=O)O)cc2)c1O (stereo partly drawn) [Compound 54, 4-(4-(4-((2S)-4-amino-4-oxo-2-(4-(2-phenoxypropanamido)benzamido)butanamido)benzamido)-2-hydroxy-3-isopropoxybenzamido)benzoic acid] | > 64 µg/mL | > 64 µg/mL | > 64 µg/mL | 4 µg/mL (≈ 4.81 µM) | > 64 µg/mL | – | – | – | – | –
CC(C)Oc1c(NC(=O)c2ccc(NC(=O)[C@H](CC(N)=O)NC(=O)c3ccc(NC(=O)c4ccc(C#N)cc4)cc3)cc2)ccc(C(=O)Nc2ccn(C)c2)c1O [Compound 87, (S)-2-(4-(4-cyanobenzamido)benzamido)-N1-(4-((3-hydroxy-2-isopropoxy-4-((1-methyl-1H-pyrrol-3-yl)carbamoyl)phenyl)carbamoyl)phenyl)succinamide] | > 64 µg/mL | > 64 µg/mL | > 64 µg/mL | < 0.03 µg/mL | > 64 µg/mL | – | – | – | – | –
CC(C)COc1c(NC(=O)c2ccc(NC(=O)[C@H](CC(N)=O)NC(=O)c3ccc(NC(=O)c4ccc([N+](=O)[O-])cc4)cc3)cc2)ccc(C(=O)Nc2ccc(C(=O)O)cc2)c1O [Compound 65, (S)-4-(4-(4-(4-amino-2-(4-(4-nitrobenzamido)benzamido)-4-oxobutanamido)benzamido)-2-hydroxy-3-isobutoxybenzamido)benzoic acid] | 1 µg/mL (≈ 1.18 µM) | > 64 µg/mL | > 64 µg/mL | > 64 µg/mL | > 64 µg/mL | – | – | – | – | –
CC(C)Oc1c(NC(=O)c2ccc(NC(=O)[C@H](CC(N)=O)NC(=O)c3ccc(NC(=O)c4ccc(C#N)cc4)cc3)cc2)ccc(C(=O)Nc2cccc(C(=O)O)c2)c1O [Compound 90, (S)-3-(4-(4-(4-amino-2-(4-(4-cyanobenzamido)benzamido)-4-oxobutanamido)benzamido)-2-hydroxy-3-isopropoxybenzamido)benzoic acid] | 2 µg/mL (≈ 2.46 µM) | 0.5 µg/mL (≈ 0.616 µM) | > 64 µg/mL | 0.03 µg/mL (≈ 0.037 µM) | > 64 µg/mL | – | – | – | – | –
CC(C)Oc1c(NC(=O)c2ccc(NC(=O)[C@H](CC(N)=O)NC(=O)c3ccc(NC(=O)c4ccc([N+](=O)[O-])cc4)cc3)cc2)ccc(C(=O)Nc2ccc(C(N)=O)cc2)c1O [Compound 78, (S)—N1-(4-((4-((4-carbamoylphenyl)carbamoyl)-3-hydroxy-2-isopropoxyphenyl)carbamoyl)phenyl)-2-(4-(4-nitrobenzamido)benzamido)succinamide] | 64 µg/mL (≈ 77 µM) | 32 µg/mL (≈ 38.5 µM) | > 64 µg/mL | ≤ 0.03 µg/mL | > 64 µg/mL | – | – | – | – | –
CC(C)Oc1c(NC(=O)c2ccc(NC(=O)[C@H](CC(N)=O)NC(=O)c3ccc(NC(=O)c4cccc(N)c4)cc3)cc2)ccc(C(=O)Nc2ccc(C(=O)O)cc2)c1O [Compound 42, (S)-4-(4-(4-(4-amino-2-(4-(3-aminobenzamido)benzamido)-4-oxobutanamido)benzamido)-2-hydroxy-3-isopropoxybenzamido)benzoic acid] | > 64 µg/mL | 32 µg/mL (≈ 39.9 µM) | > 64 µg/mL | 2 µg/mL (≈ 2.49 µM) | 4 µg/mL (≈ 4.99 µM) | – | – | – | – | –
CC(C)Oc1c(NC(=O)c2ccc(NC(=O)[C@H](CC(N)=O)NC(=O)c3ccc(NC(=O)c4ccc([N+](=O)[O-])c(OC(C)C)c4O)cc3)cc2)ccc(C(=O)Nc2ccc(C(=O)O)cc2)c1O [Compound 48, (S)-4-(4-(4-(4-amino-2-(4-(2-hydroxy-3-isopropoxy-4-nitrobenzamido)benzamido)-4-oxobutanamido)benzamido)-2-hydroxy-3-isopropoxybenzamido)benzoic acid] | > 64 µg/mL | > 64 µg/mL | > 64 µg/mL | > 64 µg/mL | > 64 µg/mL | – | – | – | – | –
CC(C)Oc1c(NC(=O)c2ccc(NC(=O)[C@H](CC(N)=O)NC(=O)c3ccc(NC(=O)c4ccncc4)cc3)cc2)ccc(C(=O)Nc2ccc(C(=O)O)cc2)c1O [Compound 55, (S)-4-(4-(4-(4-amino-2-(4-(isonicotinamido)benzamido)-4-oxobutanamido)benzamido)-2-hydroxy-3-isopropoxybenzamido)benzoic acid] | > 64 µg/mL | 1 µg/mL (≈ 1.27 µM) | > 64 µg/mL | < 0.03 µg/mL | 2 µg/mL (≈ 2.54 µM) | – | – | – | – | –
CC(C)Oc1c(NC(=O)c2ccc(NC(=O)[C@H](CC(N)=O)NC(=O)c3ccc(NC(=O)c4ccc(C(F)(F)F)cc4)cc3)cc2)ccc(C(=O)Nc2ccc(C(=O)O)cc2)c1O [Compound 45, (S)-4-(4-(4-(4-amino-4-oxo-2-(4-(4-(trifluoromethyl)benzamido)benzamido)butanamido)benzamido)-2-hydroxy-3-isopropoxybenzamido)benzoic acid] | 16 to 32 µg/mL (≈ 18.7 to 37.4 µM) | 0.5 µg/mL (≈ 0.585 µM) | > 64 µg/mL | ≤ 0.03 µg/mL | > 64 µg/mL | – | – | – | – | –
C/C(=C\c1ccc(C#N)cc1)C(=O)Nc1ccc(C(=O)N[C@@H](CC(N)=O)C(=O)Nc2ccc(C(=O)Nc3ccc(C(=O)Nc4ccc(C(=O)O)cc4)c(O)c3OCC(C)C)cc2)cc1 [Compound 125, (S,E)-4-(4-(4-(4-amino-2-(4-(3-(4-cyanophenyl)-2-methylacrylamido)benzamido)-4-oxobutanamido)benzamido)-2-hydroxy-3-isobutoxybenzamido)benzoic acid] | 0.06 µg/mL (≈ 0.0693 µM) | 0.5 µg/mL (≈ 0.577 µM) | > 64 µg/mL | 0.06 µg/mL (≈ 0.0693 µM) | > 64 µg/mL | – | – | – | – | –
CC(C)Oc1c(NC(=O)c2ccc(NC(=O)[C@H](CC(N)=O)NC(=O)c3ccc(NC(=O)c4ccc(F)cc4)cc3)cc2)ccc(C(=O)Nc2ccc(C(=O)O)cc2)c1O [Compound 39, (S)-4-(4-(4-(4-amino-2-(4-(4-fluorobenzamido)benzamido)-4-oxobutanamido)benzamido)-2-hydroxy-3-isopropoxybenzamido)benzoic acid] | 2 µg/mL (≈ 2.49 µM) | 0.5 µg/mL (≈ 0.621 µM) | > 64 µg/mL | 0.5 µg/mL (≈ 0.621 µM) | 2 µg/mL (≈ 2.49 µM) | – | – | – | – | –
CC(C)Oc1c(NC(=O)c2ccc(NC(=O)[C@H](CC(N)=O)NC(=O)c3ccc(NC(=O)c4ccc(C#N)cc4)cc3)cc2)ccc(C(=O)NC2CCNCC2)c1O [Compound 91, (S)-2-(4-(4-cyanobenzamido)benzamido)-N1-(4-((3-hydroxy-2-isopropoxy-4-(piperidin-4-ylcarbamoyl)phenyl)carbamoyl)phenyl)succinamide] | > 64 µg/mL | > 64 µg/mL | > 64 µg/mL | > 64 µg/mL | > 64 µg/mL | – | – | – | – | –
CC(C)Oc1c(NC(=O)c2ccc(NC(=O)[C@H](CC(N)=O)NC(=O)c3ccc(NC(=O)c4ccc(S(C)(=O)=O)cc4)cc3)cc2)ccc(C(=O)Nc2ccc(C(=O)O)cc2)c1O [Compound 56, (S)-4-(4-(4-(4-amino-2-(4-(4-(methylsulfonyl)benzamido)benzamido)-4-oxobutanamido)benzamido)-2-hydroxy-3-isopropoxybenzamido)benzoic acid] | > 64 µg/mL | 2 µg/mL (≈ 2.31 µM) | > 64 µg/mL | < 0.03 µg/mL | > 64 µg/mL | – | – | – | – | –
CC(C)Oc1c(NC(=O)c2ccc(NC(=O)[C@H](CC(N)=O)NC(=O)c3ccc(NC(=O)c4ccccc4)cc3)cc2)ccc(C(=O)Nc2ccc(C(=O)O)cc2)c1O [Compound 38, (S)-4-(4-(4-(4-amino-2-(4-benzamidobenzamido)-4-oxobutanamido)benzamido)-2-hydroxy-3-isopropoxybenzamido)benzoic acid] | – | – | – | – | – | > 64 µg/mL | > 64 µg/mL | > 64 µg/mL | 0.5 µg/mL (≈ 0.635 µM) | 2 µg/mL (≈ 2.54 µM)
CC(C)Oc1c(NC(=O)c2ccc(NC(=O)[C@H](CC(N)=O)NC(=O)c3ccc(NC(=O)c4ccccc4[N+](=O)[O-])cc3)cc2)ccc(C(=O)Nc2ccc(C(=O)O)cc2)c1O [Compound 43, (S)-4-(4-(4-(4-amino-2-(4-(2-nitrobenzamido)benzamido)-4-oxobutanamido)benzamido)-2-hydroxy-3-isopropoxybenzamido)benzoic acid] | > 64 µg/mL | > 64 µg/mL | > 64 µg/mL | 2 µg/mL (≈ 2.4 µM) | > 64 µg/mL | – | – | – | – | –
